The values below come from patent US11958821B2, “Phenethylamine compounds salts, polymorphic forms and methods of use thereof” (Terran Biosciences Inc., priority 2021, dated 2024).

For orientation: Solubility means how much of the substance goes into solution per volume.

Series [1] deals with Male Sprague-Dawley rats. Kind of series: Rat elevated zero-maze study with MDAI and chlordiazepoxide. The series is classed as in vivo. As for the experimental part:
Three rats from the vehicle group, 3 rats from the 2.5 mg/kg MDAI group, and 3 rats from the CDP group were tested on a separate day from the other rats.

The test system of series [2] is Male Sprague-Dawley rats. As to the kind of experiment: Rat elevated zero-maze study with racemic MDE, R-MDE, S-MDE and chlordiazepoxide. As to conditions: positive control, 6 mg/kg ip.
Procedure: A reduction in the amount of activity on the open areas is considered to reflect an increase in anxiety. The ethologically-based behavior, stretched attend postures (SAP) from closed to open quadrants, is assessed as an index of anxiety. […] Animals
(§1) Male Sprague-Dawley 200-250 g (Envigo UK) rats were used. Animals were group-housed (5 per cage; cage size: 40×40×20 cm) in a temperature-controlled environment (22±2° C.), under a 12 h light-dark cycle (lights on: 08:00 hours) for one week prior to testing. Food and water were freely available. Number of animals per group=5.
(§2) The elevated 0-maze comprises a black Perspex annular platform (105 cm diameter, 10 cm width) elevated to 65 cm above ground level, divided equally into four quadrants. Two opposite quadrants are enclosed by clear red Perspex walls (27 cm high) on both the inner and outer edges of the platform, while the remaining two opposite quadrants are surrounded only by a Perspex “lip” (1 cm high) which serves as a tactile guide to animals on these open areas.
Subjects were weighed and tail marked before being injected. After a specified pretreatment time, subjects were placed in a closed quadrant and a 5-min test period were recorded on videotape for subsequent analysis. The maze was cleaned with 5% methanol/water solution and dried thoroughly between test sessions. Behavioural measures comprise percentage time spent on the open areas (% TO) and frequency of stretched attend postures (SAP) from closed to open quadrants. Animals are scored as being in the open area when all four paws were in an open quadrant and in the closed area only when all four paws have passed over the open-closed divide.
Thirty min later at T=0, rats were individually placed in a closed arm of the zero-maze and behavior was assessed by a “blind” observer using remote video monitoring over the subsequent 5 min. The animal was then removed and the maze carefully wiped with 5% methanol/water solution before the next test was begun.
Thirty min later at T=0, rats were individually placed in a closed arm of the zero-maze and behavior assessed by a “blind” observer using remote video monitoring over the subsequent 5 min. The animal was then removed and the maze carefully wiped with 5% methanol/water solution before the next test was begun.
Series [3] deals with Male Sprague-Dawley rats. As to the kind of experiment: Rat elevated zero-maze study with racemic MBDB, R-MBDB, S-MBDB and chlordiazepoxide. As to conditions: positive control, 6 mg/kg ip.
Source text: Two opposite quadrants are enclosed by Perspex walls on both the inner and the outer edges of the platform, while the remaining two opposite quadrants are open being enclosed only by a Perspex “lip”. Animals will show a preference for the closed areas, and avoidance of the open sections is assumed to stem from a rodent's natural aversion to open, exposed spaces. A reduction in the amount of activity on the open areas is considered to reflect an increase in anxiety. The ethologically-based behavior stretched attend postures (SAP) from closed to open quadrants is assessed as an index of anxiety. […] Animals
as §1, §2
Subjects were weighed and tail marked before being injected. After a specified pretreatment time, subjects were placed in a closed quadrant and a 5-min test period were recorded on videotape for subsequent analysis. The maze was cleaned with 5% methanol/water solution and dried thoroughly between test sessions. Behavioural measures comprise percentage time spent on the open areas (% TO) and frequency of stretched attend postures (SAP) from closed to open quadrants. Since the control groups were all treated identically with the same vehicle these were combined to increase power. The Chlordiazepoxide groups were also treated identically with the same dose so these were also combined to increase power. Animals are scored as being in the open area when all four paws were in an open quadrant and in the closed area only when all four paws have passed over the open-closed divide.
Thirty min later at T=0, rats were individually placed in a closed arm of the zero-maze and behavior assessed by a “blind” observer using remote video monitoring over the subsequent 5 min. The animals were then removed and the maze carefully wiped with 5% methanol/water solution before the next test was begun.
Thirty min later at T=0, rats were individually placed in a closed arm of the zero-maze and behavior was assessed by a “blind” observer using remote video monitoring over the subsequent 5 min. The animal were then removed and the maze carefully wiped with 5% methanol/water solution before the next test was begun.
Thirty min later at T=0, rats were individually placed in a closed arm of the zero-maze and behavior was assessed by a “blind” observer using remote video monitoring over the subsequent 5 min.
Series [4] is described as follows: Hygroscopicity of MDMA salts at 75% RH, visual assessment after 24 hours. The series is classed as physicochemical. The following applies: visual assessment after exposure to 75% RH (room temp) for 24 hours. The method, then:
A small amount of each salt was placed in a glass vial and exposed to 75% relative humidity for 24 hours. […] That is, the solids remained free flowing.
All materials having a unique X-ray powder diffraction (XRPD) pattern were characterized by differential scanning calorimetry (DSC), thermogravimetric analysis (TG), and ^1H nuclear magnetic resonance (NMR) spectroscopy. The hygroscopicity of each salt at 75% RH was also evaluated. The water solubility of each salt was estimated by adding water in aliquots to weighed portions of solid at room temperature while sonicating. Whether dissolution had occurred was judged by visual inspection after addition of each solvent aliquot. Solubility numbers were calculated by dividing the weight of the sample by the total amount of solvent used to dissolve the sample. The actual solubilities may be greater than the numbers calculated because of the use of solvent aliquots that were too large or because of slow dissolution rates.

The nature of series [5]: Estimated solubility of MDMA salts (solvent added in aliquots, visual inspection). The series is classed as physicochemical.
Series [6] is described as follows: Dynamic vapor sorption (DVS) analysis with post-DVS XRPD. The series is classed as physicochemical. As to conditions: for Hygroscopicity by DVS: 25° C., 5 to 95% RH. As for the experimental part: DVS analysis was carried out using a TA Instruments Q5000 Dynamic Vapor Sorption analyzer. The instrument was calibrated with standard weights and a sodium bromide standard for humidity. Approximately 5-25 mg of sample was loaded into a metal-coated quartz pan for analysis. The sample was analyzed at 25° C. with a maximum equilibration time of one hour in 10% relative humidity (RH) steps from 5 to 95% RH (adsorption cycle) and from 95 to 5% RH (desorption cycle). The movement from one step to the next occurred either after satisfying the equilibrium criterion of 0.01% weight change or, if the equilibrium criterion was not met, after one hour. The percent weight change values were calculated using Microsoft Excel®.

For series [7] the following is noted: cited from earlier work.
The conditions of series [8]: cited from earlier work. The source holds these as a separate data set.
Series [9] relates to participants diagnosed with at least moderate post-traumatic stress disorder (PTSD). Kind of series: Double-blind, randomized, placebo-controlled clinical trial of MDAI-assisted psychotherapy in PTSD. The series is classed as in vivo, human. As for the experimental part: A multicenter, randomized, double-blind, placebo-controlled trial is conducted to assess the efficacy and safety of MDAI-assisted psychotherapy versus psychotherapy with placebo control in participants diagnosed with at least moderate post-traumatic stress disorder (PTSD).
This multicenter, randomized, double-blind, placebo-controlled trial is conducted at various sites in the United States with IRB approval from each study site. A flexible dose of MDAI hydrochloride salt or placebo, followed by a supplemental half-dose unless contraindicated by patient's previous response or medical history, is also administered during the Treatment Period with psychotherapy in at least 3 blinded monthly Experimental Sessions. The Supplemental Dose extends the duration of drug effects on the participants during an Experimental Session. An optional Risk Evaluation and Mitigation Strategy (REMS) Protocol may be implemented for MDAI and placebo-groups. The Treatment Period lasts for approximately 12 weeks. During the Treatment Period, each Experimental Session is followed by three Intervening Sessions of non-drug psychotherapy. Each Experimental Session involves an overnight stay. The Primary Outcome measure, the change in Clinician Administered PTSD Scale for DSM-5 (CAPS-5), is determined by a blinded Independent Rater (IR) pool multiple times throughout the study. The study consists of separate periods for each participant. Initially, prospective participants undergo a Screening Period involving an initial eligibility assessment, a medical history intake, informed consent, and enrollment of eligible participants. Next, a Preparation Period is undertaken for enrolled participants involving medication tapering and clinical baseline assessments to confirm each participant meets enrollment criteria. As part of the Preparation Period, a detailed assessment of co-morbidities to PTSD is recorded. Participants may remain on prescribed courses of selective serotonin reuptake inhibitor (SSRI) or serotonin and norepinephrine reuptake inhibitor (SNRI) treatment. Dosages and/or frequency of administration of a prescribed SSRI or SNRI may be adjusted to fit within study parameters. Participants may be required to taper a prescribed course of medication in order to maintain eligibility within the study. The Treatment Period consists of three monthly Experimental Sessions and associated Intervening Sessions of integrative behavioral psychotherapy. The Treatment Period lasts approximately 12 weeks. Following the Treatment Period is a Follow-up Period and Study Conclusion. During the Follow-up Period and Study Conclusion, participants complete 4 weeks with no study visits, followed by a Study Conclusion visit.
This study compares the effects of three blinded Experimental Sessions of psychotherapy in combination with flexible doses of MDAI or placebo administered as described below. Non-drug preparatory and intervening psychotherapy sessions are also included. Patient's weight is determined for dosage calculation. Initial dose is 100 mg unless this will result in a dosage of less than 1.5 mg/kg of patient weight. Initial dose thereby adjusted upward in 50 mg increments to deliver the lowest dose possible of at least 1.5 mg/kg of patient weight. Initial dose for Experimental Session 2 and 3 is cumulative dose calculated by adding the initial dose plus REMS protocol dose used the previous Experimental Session for each patient.
Randomization occurs prior to the initiation of Experimental Session 1. […]

Series [10] can be described thus: Solid-form stability of MBDB maleate forms (ball milling, drying, interconversion slurry). The series is classed as physicochemical. The following applies: mixture of Maleate 3 and Maleate 1 dried at 46° C. overnight; recovered solids Maleate 1. The method, then: During the screen, a single crystal Maleate 1 of sufficient size and quality was obtained from a vapor diffusion experiment with ethanol and hexane. The crystal structure is reported elsewhere but the data confirmed the anhydrous/unsolved nature of the material. […] Two new crystalline forms of MBDB Maleate were observed during the screening designated as MBDB Maleate 2 and MBDB Maleate 3 (FIG. 96, 97). Additional characterization of these samples was conducted to better understand the nature of the materials produced, as shown below. MBDB Maleate 2 was generated once from a cooling crystallization from dioxane. The proton nuclear magnetic resonance (NMR) spectrum was consistent with a monomaleate salt of MBDB and contained residual dioxane. Only a limited amount of material was recovered so the only additional characterization that could be completed was differential scanning calorimetry (DSC). The DSC thermogram appears consistent with an anhydrous/unsolvated form with a likely melt at 96° C. (FIG. 100). […] An attempt was made to reproduce Maleate 2 using the same conditions and seeds of Maleate 2. PXRD analysis of the recovered solids however was consistent with Maleate 1. MBDB Maleate 3 was isolated from an evaporation experiment involving chloroform and ethyl acetate. NMR analysis of the material was consistent with a mono-maleate salt of MBDB. […]

[11] abbreviates: oral, people, MDAI Dosages (psychonautwiki).

Like-named read-outs stand apart in the source and are kept apart here.

For `CNC1=Nc2ccc(Cl)cc2C(c2ccccc2)=[N+]([O-])C1` [CDP, Chlordiazepoxide, reference compound], in the series with Male Sprague-Dawley rats [1] (positive control, 6 mg/kg ip), the “Frequency of HDIPS” value is on record as “trend towards increased”, the “Percentage of time in the open arms (% TO)” value is listed as “significant increase in the percentage of time in the open arms”, the Total line crossings result is “trend towards increased” and the “Total open arm entries” value is recorded as “trend towards increased”. Besides, in the series with Male Sprague-Dawley rats [2], the “Frequency of stretched attend postures (SAP)” value was “significant reduction in SAPs”; the “Percentage of time spent in the open arms (% TO)” value was “significant increase in time in the open arms for the R MDE group and S MDE group only”. In the series on Male Sprague-Dawley rats [3], the “Frequency of stretched attend postures (SAP)” value is recorded as “significant reduction in SAPs” and the “Percentage of time in the open arms (% TO)” value is “did not show significance over vehicle”.

As for `CNC(C)Cc1ccc2c(c1)OCO2.CNC(C)Cc1ccc2c(c1)OCO2.O=C(O)/C=C/C(=O)O` (stereo not drawn) [Fumarate], in series [4], the “Hygroscopic at 75% RH?” value was “no evidence of hygroscopicity and No”. In addition, the Solubility is <1 mg/mL in [5] (1,4-dioxane); 35 mg/mL in [5] (1:1 MeOH:chloroform (CHCl3)); <1 mg/mL in series [5] (2-propanol (IPA)); 4 mg/mL in series [5] (95:5 ACN:water); 15 mg/mL in [5] (95:5 EtOH:water); 5 mg/mL in series [5] (95:5 IPA:water). Moreover, the Solubility in series [5] (95:5 THF:water) is on record as 14 mg/mL; in series [5] (95:5 acetone:water) it was 2 mg/mL; in series [5] (95:5 dioxane:water), 6 mg/mL; in [5] (acetone), <1 mg/mL; in series [5] (acetonitrile (ACN)) it was <1 mg/mL; in [5] (dichloromethane (DCM)), <1 mg/mL. In addition, the Solubility in series [5] (diethyl ether (Et2O)) is given as <1 mg/mL; in [5] (ethanol (EtOH)), 4 mg/mL; in [5] (ethyl acetate (EtOAc)), <1 mg/mL; in series [5] (methanol (MeOH)), 47 mg/mL; in series [5] (tetrahydrofuran (THF)), <1 mg/mL; in [5] (water) it was 260 mg/mL. The results for the “Hygroscopicity by DVS” value in series [6] (listed as MDMA Hemi-Fumarate) and in [6] (listed as MDMA hemi-fumarate) were “Slightly hygroscopic” and “slightly hygroscopic”, respectively. The “Post-DVS XRPD (form change)” value in series [6] (solids after DVS analysis) is recorded as “Unchanged”.

Turning to `CNC(C)Cc1ccc2c(c1)OCO2.CNC(C)Cc1ccc2c(c1)OCO2.O=C(O)[C@@H](O)[C@H](O)[C@H](O)[C@@H](O)C(=O)O` (stereo not drawn) [Galactarate (Mucate)], the “Hygroscopic at 75% RH?” value in series [4] is “no evidence of hygroscopicity and No”.

Consider `CCC(Cc1ccc2c(c1)OCO2)NC` (stereo not drawn) [MBDB, 1-(benzo[d][1,3]dioxol-5-yl)-N-methylbutan-2-amine], for which, in series [7] (Duration of effects of MBDB in people, adapted from PiHKAL 1991), the “Effects: Coming Down, Time After Dose” value was ~90 min. Further, the “Reported time to achieve peak effects” value in series [7] (after dosing) is 0.75 to 1 h. The “Oral MBDB Dose, Drug Activity Level: Very Strong” value in [7] (oral, people) was ≥350 mg. Besides, in series [8] (setting [11]), the “Oral dose for Drug Activity Level Threshold” value is listed as 40 mg and the “Oral dose for drug activity level Very Strong” value is on record as ≥300 mg.

For the compound `NC1Cc2cc3c(cc2C1)OCO3` [MDAI, 5,6-methylenedioxy-2-aminoindane], the “Percentage of time in the open arms (% TO)” value in the series with Male Sprague-Dawley rats [1] (0.625 mg/kg ip) was “numerical increase in % TO that was greater than vehicle or any other dose of MDAI”; in the series with Male Sprague-Dawley rats [1] (doses too low or too high (0.15, 0.31, 1.25, 2.5)), “opposite effect on % TO”. Besides, the “Total open arm entries” value in the series with Male Sprague-Dawley rats [1] (higher and lower doses) was “trended towards an anxiogenic effect”; in the series on Male Sprague-Dawley rats [1] (middle dose), “increase vs placebo that trended towards significance”. Further, the “Daytime sleepiness (ESS)” value in series [9] (Study Conclusion) is given as “significant improvement in lessening daytime sleepiness”. For the same compound, in series [9] (Study Conclusion, vs placebo), the “Clinician-rated functional impairment score (SDS)” value is “significant improvement in clinician-rated functional impairment score”. Besides, the “Depression (HAM-D)” value in [9] (Study Conclusion, vs placebo) is “significant improvement depression”. In [9] (Study Conclusion, vs placebo, hydrochloride salt with psychotherapy), the “Change in CAPS-5 assessment” value is listed as “significant mean reduction in CAPS-assessment compared to the placebo group”. Moreover, the Adverse anxiogenic incidents result in series [9] (vs placebo-treated controls) is recorded as “without a significant increase in adverse anxiogenic incidents”. Besides, the “Reported time to achieve peak effects” value in [8] (after dosing) is 0.75 to 2 h.

With `CCC(Cc1ccc2c(c1)OCO2)NC.O=C(O)/C=C\C(=O)O` (stereo not drawn) [Maleate 3], in [10], the “Form stability on drying (PXRD)” value is listed as “metastable under these conditions”.

`CNC(C)Cc1ccc2c(c1)OCO2.O=C(O)/C=C\C(=O)O` (stereo not drawn) [Maleate Form 1]: in series [4], the “Hygroscopic at 75% RH?” value is recorded as “No”.

For `CNC(C)Cc1ccc2c(c1)OCO2.O=C(O)/C=C\C(=O)O` (stereo not drawn) [Maleate Form 2], in series [4], the “Hygroscopic at 75% RH?” value is listed as “No”.

On to `CNC(C)Cc1ccc2c(c1)OCO2.O=P(O)(O)O.O=P(O)(O)O` (stereo not drawn) [Phosphate], for which, in series [4], the “Hygroscopic at 75% RH?” value was “no evidence of hygroscopicity and No”.

As for `CNC(C)Cc1ccc2c(c1)OCO2.O=C(O)CCC(=O)O` (stereo not drawn) [Succinate], the “Hygroscopic at 75% RH?” value in [4] is recorded as “No”.
